Earlier results as cited in patent US11034961B2 (priority 2015, dated 2021).

Columns and labels:
[1] = administered by IV
[2] = infusion into the scala tympani

| SMILES | sufferers in whom the noise associated with tinnitus is reduced or eliminated [1] | Meniere's disease symptoms [2] |
| --- | --- | --- |
| CCN(CC)CC(=O)Nc1c(C)cccc1C [Lidocaine] | 60-80% | – |
| Cc1ccccc1C(=O)Nc1ccc(C(=O)N2CCCC(N(C)C)c3ccccc32)cc1 (centres unmarked) [OPC-31260] | – | marked reduction |
